In article PMC7169385, “Metabolic Stability of New Mito-Protective Short-Chain Naphthoquinones” (Pharmaceuticals, 2020):
Several values for one entry are separate records, joined by “and”; a condition that tells them apart may be missing. Equal values may be shown once.

Tested on: not given
Test: not given
Set-up: method as in PMID 19125241
Settings: single dose of 150 mg; ref [15]; cited from earlier work

For COC1=C(OC)C(=O)C(CCCCCCCCCCO)=C(C)C1=O [Idebenone, reference compound], which t1/2 in vivo is on record?
Its t1/2 in vivo is 3 h and ~ 3 h.

Tested on: HepG2 cells
Test: Metabolic stability study in HepG2 cells with RP-LC quantitation
Format: in vitro ADME, human
Settings: HepG2 2.5 × 10^5 cells per well, 40 μM, 6 h, normalized to t = 0
Experimental: HepG2 cells were cultured in DMEM culture media in an atmosphere of 95% humidified air and 5% CO2 at 37 °C. Cells were passaged twice a week when reaching approximately 75% confluency. Cell monolayers were washed with PBS once before harvested with 0.5 mL EDTA and 0.5 mL trypsin for 3.5 min and counted using a hemocytometer (Paul Marienfeld GmbH, Lauda-Königshofen, Germany). Cells were routinely grown in 25 cm^2 cell culture flasks (2 μm vent cap, Corning, Victoria, Australia) with 2 × 10^6 cells seeded in 5 mL culture media. After thawing from liquid nitrogen storage, cells were passaged for at least 2–3 weeks to reach steady cumulative growth rates before used for any experiments.
To effectively compare the metabolic stability of our novel SCQs to the reference compound idebenone, a cell culture system had to be developed that would replicate the high metabolic conversion of idebenone in the liver observed in vivo [15, 16, 17]. We therefore employed the hepatic cell line HepG2 to expose the test compounds to hepatic-like enzymatic activities. In addition, the test concentration for SCQs and idebenone had to take into consideration two opposing factors. On the one hand the assay would need to contain sufficient test compound to maximize detection accuracy, on the other hand, the concentration needed to be below the levels that might induce toxicity towards the cultured cells. Based on previous data, no significant cell loss was observed when HepG2 cells were treated with most SCQs at a concentration of 200 μM for 24 h, which led us to select the lower concentration of 40 μM as test concentration. […] We therefore selected the lowest cell concentration (2.5 × 10^5 cells in 2 mL culture media) for this assay.
Log phase HepG2 cells were seeded at 2.5 × 10^5 cells well^−1 in tissue culture-treated 6-well plates (Corning, Victoria, Australia) and allowed to adhere overnight. After one day, the culture media was replaced with fresh culture media (2 mL well^−1) containing the test compounds (12 parallel wells per SCQ). After incubation of cells with test compounds for up to 6 hours, the cell culture media containing the residual SCQs was removed from the six-well plates. Then, 1 mL of cell culture media containing each tested compound was collected at different time points (t = 0, 2 h, 4 h, 6 h). Several methods of sample preparation were tested (e.g., dilution with organic solvents followed by evaporation) and the most suited approach was identified. Each sample (1 mL) was mixed 1:1 with ACN, vortexed for 10 s, and then centrifuged at 2000× g for 10 min at 25 °C. 1 mL of each supernatant was diluted 1:1 in purified water and filtered using 0.45 μm filters prior to immediate analysis by RP-LC. The final concentration of tested compounds for RP-LC analysis was ≤10 μM.
The RP-LC method was developed so that ≤10 μM of each SCQ could be quantified with acceptable repeatability (RSD%) and recovery (%). The mobile phase gradient was adjusted to generate a retention time (RT) of all compounds between 3.00–9.05 min (Table S1). The final conditions included a gradient flow of mobile phase B: 25% (same ACN% in the sample) for 2 min, 25–95% for 3 min, 95% for 4 min, 95–25% for 1 min, and 25% for 5 min (total run t = 15 min, including column post-conditioning). The injection volume (2–20 μL) and detection wavelength (210 nm, 230 nm, 254 nm, 480 nm) were then varied to optimize sensitivity, with 20 μL sample injection volume and detection at 210 nm identified as ideal (Figure S3). Supplementary Table S1 summarizes the analytical figures of merit for the RP-LC of all the compounds. […] The limit of quantification (LOQ) of each compound was established as 1 μM. RSD% (n = 3) at all concentrations (1.0 μM, 2.5 μM, 5.0 μM, 7.5 μM, and 10 μM) were between 0.4–7.6%. […] The above values for analytical figures of merit were considered acceptable for determining metabolic stability of the compounds with concentrations ≤10 μM. […]

Which “remaining at t = 6 h” value does the source give for COC1=C(OC)C(=O)C(CCCCCCCCCCO)=C(C)C1=O [Idebenone, reference compound] here?
The value was ~ 27.3%.

Same assay, conditions: HepG2, 40 μM, 2 h; three cell densities (2.5 × 10^5 to 1.0 × 10^6 cells in 2 mL)

For COC1=C(OC)C(=O)C(CCCCCCCCCCO)=C(C)C1=O [Idebenone, reference compound], which “metabolized drug after 2 h” value is on record?
The value was ~ 50%.

Same assay, conditions: HepG2, 40 μM, 4 h; three cell densities (2.5 × 10^5 to 1.0 × 10^6 cells in 2 mL)

Which “metabolized drug after 4 h” value does the source give for COC1=C(OC)C(=O)C(CCCCCCCCCCO)=C(C)C1=O [Idebenone, reference compound] here?
Its value is about 76%.

Same assay, conditions: HepG2, 40 μM, up to 6 h

For CC1=C(CCCC(=O)N[C@@H](CO)Cc2ccccc2)C(=O)c2ccccc2C1=O [Compound 4], which “metabolic stability (in words)” value is on record?
Its value is “without a significant metabolic conversion”.

For CC1=C(CCCCCC(=O)NCCc2ccc(O)cc2)C(=O)c2ccccc2C1=O [Compound 9], which “metabolic stability (in words)” value is on record?
Its value is “increased metabolic stability”.

With CC1=C(CCCC(=O)N[C@H](CO)Cc2ccccc2)C(=O)c2ccccc2C1=O [Compound 3] as the compound, how does the “metabolic stability (in words)” value read?
The value was “much less stable than its unnatural D-enantiomer 4”.

For CC1=C(CCCCC(=O)N[C@@H](Cc2ccccc2)C(=O)O)C(=O)c2ccccc2C1=O [Compound 6], which “metabolic stability (in words)” value is on record?
The value was “without a significant metabolic conversion”.

For CC1=C(CCCC(=O)N[C@@H](Cc2ccccc2)C(=O)O)C(=O)c2ccccc2C1=O [Compound 5], which “metabolic stability (in words)” value is on record?
The value was “without a significant metabolic conversion”.

With CC1=C(CCCC(=O)N[C@@H](CC(C)C)C(=O)O)C(=O)c2ccccc2C1=O [Compound 10] as the compound, how does the “metabolic stability (in words)” value read?
Its value is “without a significant metabolic conversion”.

Which “metabolic stability (in words)” value does the source give for CC1=C(SCCC(=O)O)C(=O)c2ccccc2C1=O [Compound 16] here?
Its value is “significantly reduced metabolic stability”.

For CC1=C(CCCC(=O)N[C@H](CO)c2ccccc2)C(=O)c2ccccc2C1=O [Compound 1], which “metabolic stability (in words)” value is on record?
Its value is “without a significant metabolic conversion”.

With CC1=C(CCCCC(=O)NCCc2ccc(O)cc2)C(=O)c2ccccc2C1=O [Compound 8] as the compound, how does the “metabolic stability (in words)” value read?
The value was “increased metabolic stability”.

For CC1=C(CCCC(=O)NCCc2ccc(O)cc2)C(=O)c2ccccc2C1=O [Compound 7], which “metabolic stability (in words)” value is on record?
The value was “less stable”.

Which “metabolic stability (in words)” value does the source give for CC1=C(CCCC(=O)N[C@@H](CO)c2ccccc2)C(=O)c2ccccc2C1=O [Compound 2] here?
The value was “without a significant metabolic conversion”.

Same assay, conditions: HepG2, 40 μM, up to 6 h; by retention time; 3 to 5, 14 to 15, 4 to UTAS#94

With CC1=C(CCCC(=O)N[C@@H](CO)Cc2ccccc2)C(=O)c2ccccc2C1=O [Compound 4] as the compound, how does the “metabolic conversion to the oxidized form” value read?
Its value is “no conversion was detected”.

Which “metabolic conversion to the oxidized form” value does the source give for CC1=C(CCCC(=O)N2CCCC2CO)C(=O)c2ccccc2C1=O (stereo not drawn) [Compound 14] here?
The value was “not detected at all”.

Tested on: idebenone metabolism in HepG2 cells
Test: Idebenone metabolism in HepG2 cells with or without 5
Format: in vitro ADME, human
Settings: HepG2, 6 h, 40 μM 5, all concentrations of idebenone
Experimental: The conversion from the L-phenylalaninol derivative 3 to the L-phenylalanine derivative 5 appeared to reach a plateau at ~10% conversion from t = 2 h and persisted for the entire test period until t = 6 h. […] A concentration series of the unstable reference SCQ idebenone was tested for metabolic stability for 6 h with or without 40 μM 5 (Figure 4). […] Future studies will need to address the type of inhibition and to identify the specific enzyme that is inhibited.
Figure 4 Reduced idebenone metabolism in the presence of the L-phenylalanine derivative 5. Data was expressed as mean ± SEM from three independent experiments, with 4 data points each. Non-linear fits and two-way ANOVA were performed for comparisons between with or without 5 supplemented: *** p < 0.001, * p < 0.033.

Which “stability of 5 in combination with idebenone” value does the source give for CC1=C(CCCC(=O)N[C@@H](Cc2ccccc2)C(=O)O)C(=O)c2ccccc2C1=O [Compound 5] here?
The value was “stable”.

Same assay, conditions: HepG2, 6 h, 40 μM 5; from 20 μM idebenone onward

For CC1=C(CCCC(=O)N[C@@H](Cc2ccccc2)C(=O)O)C(=O)c2ccccc2C1=O [Compound 5], which “effect on idebenone metabolism” value is on record?
Its value is “significant reduction of idebenone metabolism”.

Tested on: HepG2 cells
Test: not given
Set-up: method as in PMID 30996858
Settings: HepG2, 10 μM SCQ, rotenone; cell survival relative to untreated cells (27.9 ± 7.9%); mean ± SD; ref [11]; cited from earlier work

Which “In vitro Cytoprotection (%)” value does the source give for COC(=O)[C@@H](NC(=O)CCCC1=C(C)C(=O)c2ccccc2C1=O)c1ccccc1 [Compound 13] here?
Its value is 86.1 ± 5.0%.

Which “In vitro Cytoprotection (%)” value does the source give for CC1=C(CCCC(=O)N[C@@H](CO)Cc2ccccc2)C(=O)c2ccccc2C1=O [Compound 4] here?
Its value is 80.0 ± 21.1%.

Which “In vitro Cytoprotection (%)” value does the source give for COc1ccc(CCNC(=O)CCCC2=C(C)C(=O)c3ccccc3C2=O)cc1OC [Compound 11] here?
Its value is 95.9 ± 19.4%.

With CC1=C(CCCCCC(=O)NCCc2ccc(O)cc2)C(=O)c2ccccc2C1=O [Compound 9] as the compound, how does the “In vitro Cytoprotection (%)” value read?
The value was 85.2 ± 9.5%.

For CC1=C(CCCC(=O)N2CCCC2CO)C(=O)c2ccccc2C1=O (stereo not drawn) [Compound 14], which “In vitro Cytoprotection (%)” value is on record?
The value was 100.7 ± 28.4%.

For CC1=C(CCCC(=O)N[C@H](CO)Cc2ccccc2)C(=O)c2ccccc2C1=O [Compound 3], which “In vitro Cytoprotection (%)” value is on record?
Its value is 93.1 ± 13.7%.

Which “In vitro Cytoprotection (%)” value does the source give for CC1=C(CCCCC(=O)N[C@@H](Cc2ccccc2)C(=O)O)C(=O)c2ccccc2C1=O [Compound 6] here?
Its value is 90.7 ± 15.6%.

Which “In vitro Cytoprotection (%)” value does the source give for CC1=C(CCCC(=O)N[C@@H](Cc2ccccc2)C(=O)O)C(=O)c2ccccc2C1=O [Compound 5] here?
Its value is 100.3 ± 17.3%.

For CCCCNC(=O)CCCC1=C(C)C(=O)c2ccccc2C1=O [Compound 12], which “In vitro Cytoprotection (%)” value is on record?
The value was 82.0 ± 7.1%.

For CC1=C(CCCC(=O)N[C@@H](CC(C)C)C(=O)O)C(=O)c2ccccc2C1=O [Compound 10], which “In vitro Cytoprotection (%)” value is on record?
The value was 98.7 ± 10.9%.

For COC1=C(OC)C(=O)C(CCCCCCCCCCO)=C(C)C1=O [Idebenone, reference compound], which “In vitro Cytoprotection (%)” value is on record?
Its value is 66.2 ± 12.0%.

For CC1=C(CCCC(=O)N[C@H](CO)c2ccccc2)C(=O)c2ccccc2C1=O [Compound 1], which “In vitro Cytoprotection (%)” value is on record?
The value was 83.8 ± 19.9%.

Which “In vitro Cytoprotection (%)” value does the source give for CC1=C(CCCCC(=O)NCCc2ccc(O)cc2)C(=O)c2ccccc2C1=O [Compound 8] here?
The value was 91.8 ± 9.8%.

For CC1=C(CCCC(=O)N2CCCC2C(=O)O)C(=O)c2ccccc2C1=O (stereo not drawn) [Compound 15], which “In vitro Cytoprotection (%)” value is on record?
The value was 92.7 ± 7.6%.

With CC1=C(CCCC(=O)NCCc2ccc(O)cc2)C(=O)c2ccccc2C1=O [Compound 7] as the compound, how does the “In vitro Cytoprotection (%)” value read?
The value was 91.7 ± 15.6%.

Which “In vitro Cytoprotection (%)” value does the source give for CC1=C(CCCC(=O)N[C@@H](CO)c2ccccc2)C(=O)c2ccccc2C1=O [Compound 2] here?
The value was 87.6 ± 19.7%.

Same assay, conditions: selection for the current study; ref [11]; cited from earlier work

For CC1=C(CCCC(=O)N[C@H](Cc2ccccc2)C(=O)O)C(=O)c2ccccc2C1=O [UTAS#94], which “cytoprotection (in words)” value is on record?
The value was “not cytoprotective enough”.
